Assay results as given in patent publication US10214492B2, “Heterocyclic inhibitors of MCT4” (Vettore, LLC, priority 2016, dated 2019).

How the values were obtained:
[1] = Metabolic stability in human liver microsomes (in vitro t1/2); type: in vitro ADME; details: for half-life at 2 µM: human liver microsomes 0.5 mg/mL, 2 μM compound, read-out: Human microsome t1/2, min; for Human microsome % 60 min: human liver microsomes
Protocol: (§1) The following are assays that may be used to evaluate the metabolic stability of compounds of Formula (I) in human, rat, or mouse microsomes. The assays follow a common procedure recited below. 1. […] Two separated experiments were performed as follows. a) With NADPH: 10 μL of 20 mg/mL liver microsomes and 40 μL of 10 mM NADPH were added to the incubations. […] The final concentration of microsomes was 0.5 mg/mL. 3. The reaction was started with the addition of 4 μL of 200 μM control compound or test compound solutions. Verapamil was used as positive control in this study. The final concentration of test compound or control compound was 2 μM. 4. Aliquots of 50 μL were taken from the reaction solution at 0, 15, 30, 45 and 60 min. […] Samples were centrifuged at 3,220 g for 40 minutes. A 90 μL aliquot of the supernatant was mixed with 90 μL of ultra-pure H2O and then used for LC-MS/MS analysis. 5. Data analysis. All calculations were carried out using Microsoft Excel. Peak areas were determined from extracted ion chromatograms. The slope value, k, was determined by linear regression of the natural logarithm of the remaining percentage of the parent drug vs. incubation time curve. The in vitro half-life (in vitro t1/2) was determined from the slope value: in vitro t1/2=−(0.693)/k.

[2] = Metabolic stability in mouse liver microsomes (in vitro t1/2); type: in vitro ADME; details: for half-life at 2 µM: mouse liver microsomes 0.5 mg/mL, 2 μM compound, read-out: Mouse microsome t1/2, min; for Mouse microsome % 60 min: mouse liver microsomes
Protocol: as §1

MCT1 = MCT1 (Homo sapiens (Human), UniProt P53985); assay: Assay 4: MCT1-mediated lactate transport in BT20 breast cancer cells; type: cell-based; details: Table 27
Chain of MCT1 (P53985 whole entry): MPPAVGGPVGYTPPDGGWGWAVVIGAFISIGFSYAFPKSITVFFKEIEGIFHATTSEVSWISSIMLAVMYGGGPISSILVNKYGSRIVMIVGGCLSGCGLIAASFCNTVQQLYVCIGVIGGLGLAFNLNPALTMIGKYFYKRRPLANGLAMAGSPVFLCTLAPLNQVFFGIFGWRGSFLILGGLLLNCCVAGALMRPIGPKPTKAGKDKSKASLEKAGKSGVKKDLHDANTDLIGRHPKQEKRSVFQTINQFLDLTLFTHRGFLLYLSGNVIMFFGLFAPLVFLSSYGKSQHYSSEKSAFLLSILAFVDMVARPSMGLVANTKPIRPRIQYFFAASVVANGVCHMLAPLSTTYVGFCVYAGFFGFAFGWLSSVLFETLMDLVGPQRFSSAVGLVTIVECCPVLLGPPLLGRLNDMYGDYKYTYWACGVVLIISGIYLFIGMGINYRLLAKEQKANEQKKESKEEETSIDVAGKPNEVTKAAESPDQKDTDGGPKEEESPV
Chain of MCT1 (P35613 140-385 partner): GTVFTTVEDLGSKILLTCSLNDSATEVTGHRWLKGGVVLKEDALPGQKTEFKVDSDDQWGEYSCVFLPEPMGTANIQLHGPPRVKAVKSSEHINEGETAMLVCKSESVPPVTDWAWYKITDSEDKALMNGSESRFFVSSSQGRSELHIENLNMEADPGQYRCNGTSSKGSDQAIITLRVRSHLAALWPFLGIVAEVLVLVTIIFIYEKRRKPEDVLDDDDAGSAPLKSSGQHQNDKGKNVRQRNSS
In short: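 Transport started with 10 mM L-lactate on BCECF-loaded BT20 cells in Tyrode's Solution, pH 7.4. Dye loading: BCECF-AM ester (30 mM DMSO stock), 5 min at 37° C, then one wash.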

[3] = Metabolic stability in rat liver microsomes (in vitro t1/2); type: in vitro ADME; details: for half-life at 2 µM: rat liver microsomes 0.5 mg/mL, 2 μM compound, read-out: Rat microsome t1/2, min; for Rat microsome % 60 min: rat liver microsomes
Protocol: as §1

MCT4 = MCT4 (Homo sapiens (Human), UniProt O15427); assay: Assay 3: MCT4-mediated lactate transport in MDA-MB-231 breast cancer cells; type: cell-based; details: MDA-MB-231 cells; lactate transport
Chain of MCT4 (O15427 whole entry, looked up): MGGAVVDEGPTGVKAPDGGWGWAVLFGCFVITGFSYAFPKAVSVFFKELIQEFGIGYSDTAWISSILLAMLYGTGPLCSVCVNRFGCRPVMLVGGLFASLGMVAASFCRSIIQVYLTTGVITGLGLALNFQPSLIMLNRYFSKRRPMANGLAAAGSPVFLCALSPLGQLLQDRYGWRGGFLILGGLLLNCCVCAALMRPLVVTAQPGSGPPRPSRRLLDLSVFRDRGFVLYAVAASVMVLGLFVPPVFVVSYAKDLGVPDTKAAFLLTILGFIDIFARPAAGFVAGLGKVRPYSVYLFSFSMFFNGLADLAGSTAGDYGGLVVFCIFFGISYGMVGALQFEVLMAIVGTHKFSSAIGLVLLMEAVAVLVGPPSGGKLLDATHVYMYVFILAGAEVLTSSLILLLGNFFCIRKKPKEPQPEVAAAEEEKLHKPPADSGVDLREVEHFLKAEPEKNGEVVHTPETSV
Chain of MCT4 (P35613 whole entry partner, looked up): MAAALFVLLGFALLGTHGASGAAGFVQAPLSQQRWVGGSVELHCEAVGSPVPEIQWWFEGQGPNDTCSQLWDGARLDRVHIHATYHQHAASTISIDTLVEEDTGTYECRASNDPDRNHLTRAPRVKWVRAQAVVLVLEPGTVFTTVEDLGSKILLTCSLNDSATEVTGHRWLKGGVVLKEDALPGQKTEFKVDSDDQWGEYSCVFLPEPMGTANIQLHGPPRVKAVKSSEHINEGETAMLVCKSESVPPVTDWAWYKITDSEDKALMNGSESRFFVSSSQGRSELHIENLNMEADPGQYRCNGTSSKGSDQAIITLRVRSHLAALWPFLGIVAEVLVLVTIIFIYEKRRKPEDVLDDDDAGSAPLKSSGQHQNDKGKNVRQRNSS
In short: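 Read-out is BCECF fluorescence tracking the intracellular pH shift from MCT4-mediated lactate/H+ co-transport. Before measurement, MDA-MB-231 cells take up BCECF-AM for 5 min at 37° C, then are washed into Tyrode's Solution, pH 7.4.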

half-life at 2 µM [1] [h] | Human microsome % 60 min [1] [%] | half-life at 2 µM [2] [h] | Mouse microsome % 60 min [2] [%] | IC50 (MCT1) [nM] | half-life at 2 µM [3] [h] | Rat microsome % 60 min [3] [%] | IC50 (MCT4) [nM] | Compound
0.833 | 43 | 1.02 | 50 |  |  |  |  | CC(C)COc1cccc(-c2cc(COC(C)(C)C(=O)O)nn2Cc2ccccc2Cl)c1 [Example 27, 2-([1-[(2-Chlorophenyl)methyl]-5-(3-(2-methyl-propoxy)phenyl)1H-pyrazol-3-yl]methoxy)-2-methylpropanoic acid]
1.92 | 67 | 0.583 | 31 |  |  |  |  | CC(C)Oc1cccc(-c2cc(COC(C)(C)C(=O)O)nn2Cc2ccccc2Cl)c1 [Example 35, 2-([1-[(2-Chlorophenyl)methyl]-5-(3-isopropoxyphenyl)1H-pyrazol-3-yl]methoxy)-2-methylpropanoic acid]
4.83 | 85 | 20 | 99 |  |  |  |  | COc1cccc(-c2cc(COC(C)(C)C(=O)O)nn2Cc2ccccc2OC)c1 [Example 36, 2-([5-(3-Methoxyphenyl)-1-[(2-methoxyphenyl)methyl]1H-pyrazol-3-yl]methoxy)-2-methylpropanoic acid]
1.27 | 56 | 1.32 | 61 |  |  |  |  | COc1cccc(-c2cc(COC(C)(C)C(=O)O)nn2Cc2ccccc2N(C)C)c1 [Example 38, 2-([1-[(2-(Dimethylamino)phenyl]methyl]-5-(3-methoxyphenyl)1H-pyrazol-3-yl]methoxy)-2-methylpropanoic acid]
6.33 | 89 | 6.17 | 88 |  |  |  |  | CC(C)(OCc1cc(-c2cccc(OC3CC3)c2)n(Cc2ccccc2Cl)n1)C(=O)O [Example 39, 2-([1-[(2-Chlorophenyl)methyl]-5-[3-(cyclopropoxy)phenyl]1H-pyrazol-3-yl]methoxy)-2-methylpropanoic acid]
1.3 | 59 | 12.7 | 95 |  |  |  |  | COc1cccc(-c2c(C)c(COC(C)(C)C(=O)O)nn2Cc2ccccc2Cl)c1 [Example 54, 2-({1-[(2-Chlorophenyl)methyl]-5-(3-methoxyphenyl)-4-methyl-1H-pyrazol-3-yl)methoxy)-2-methylpropionic acid]
3.17 | 80 | > 33.3 | 100 |  |  |  |  | COc1cccc(-c2cc(COC(C)(C)C(=O)O)nn2-c2ccccc2Cl)c1 [Example 57, 2-([1-(2-chlorophenyl)-5-(3-methoxy-phenyl)-1H-pyrazol-3-yl]methoxy)-2-methylpropanoic acid]
3.33 | 82 | 4.5 | 84 |  |  |  |  | COc1ccc(-c2cc(COC(C)(C)C(=O)O)nn2Cc2ccccc2Cl)s1 [Example 64]
2.33 | 78 | 9.33 | 92 |  |  |  |  | COc1csc(-c2cc(COC(C)(C)C(=O)O)nn2Cc2ccccc2Cl)c1 [Example 65, 2-([1-[(2-Chlorophenyl)methyl)-5-(4-methoxythien-2-yl)-1H-pyrazol-3-yl]methoxy)-2-methylpropanoic acid]
2 | 73 | 4.33 | 83 |  |  |  |  | COc1cc(-c2cc(COC(C)(C)C(=O)O)nn2Cc2ccccc2Cl)cs1 [Example 66, 2-([1-[(2-chlorophenyl)methyl]-5-(5-methoxythien-3-yl)-1H-pyrazol-3-yl]-methoxy)-2-methylpropanoic acid]
13.2 | 95 | 6.33 | 91 |  |  |  |  | CCC(C)(OCc1cc(-c2cccc(OC)c2)n(Cc2ccccc2Cl)n1)C(=O)O (centres unmarked) [Example 68, 2-([1-[(2-Chlorophenyl)methyl]-5-(3-methoxyphenyl)-1H-pyrazol-3-yl)methoxy)-2-methylbutanoic acid]
3.3 | 81 | 6.83 | 101 | 22000 | 0.85 | 44 | 4 | CC[C@](C)(OCc1cc(-c2cccc(OC)c2)n(Cc2ccccc2Cl)n1)C(=O)O [Example 120, (2S)-2-([1-[(2-chlorophenyl)methyl]-5-(3-methoxyphenyl)-1H-pyrazol-3-yl]methoxy)-2-methylbutanoic Acid]
3.3 | 82 | 3.1 | 81 | 21000 | 1.43 | 61 | 8 | CC[C@@](C)(OCc1cc(-c2cccc(OC)c2)n(Cc2ccccc2Cl)n1)C(=O)O [Example 121, (2R)-2-([1-[(2-chlorophenyl)methyl]-5-(3-methoxyphenyl)-1H-pyrazol-3-yl]methoxy)-2-methylbutanoic Acid]
1.93 | 70 | 1.63 | 64 | 8200 | 1.87 | 70 | 8.6 | CC(C)COc1ncc(-c2cc(COC(C)(C)C(=O)O)nn2Cc2ccccc2Cl)s1 [Example 132, 2-([1-[(2-Chlorophenyl)methyl]-5-[2-(2-methylpropoxy)-1,3-thiazol-5-yl]-1H-pyrazol-3-yl]methoxy)-2-methylpropanoic acid]
3.1 | 80 | 1.82 | 72 |  | 4.4 | 85 |  | CC(C)Cc1ncc(-c2cc(COC(C)(C)C(=O)O)nn2Cc2ccccc2Cl)o1 [Example 134, 2-([1-[(2-Chlorophenyl)methyl]-5-[2-(2-methylpropyl)-1,3-oxazol-5-yl]-1H-pyrazol-3-yl]methoxy)-2-methylpropanoic acid]
2.48 | 78 | 161 | 102 |  | 12.5 | 97 |  | CCn1ncc2ccc(-c3cc(COC(C)(C)C(=O)O)nn3-c3ccccc3Cl)cc21 [Example 157, 2-([1-(2-chlorophenyl)-5-(1-ethyl-1H-indazol-6-yl)-1H-pyrazol-3-yl]methoxy)-2-methylpropanoic acid]
3.12 | 78 | 3.82 | 81 |  | 2.88 | 81 | 1.7 | Cn1ncc2cccc(-n3nc(COC(C)(C)C(=O)O)cc3-c3cccc(OCC4CCC4)c3)c21 [Example 168, 2-([5-[3-(cyclobutylmethoxy)phenyl]-1-(1-methyl-1H-indazol-7-yl)-1H-pyrazol-3-yl]-methoxy)-2-methylpropanoic acid]
7.22 | 88 | 21.7 | 97 | 78000 | 5.03 | 88 |  | CCOc1cccc(-n2nc(COC(C)(C)C(=O)O)cc2-c2cc(OC)cc(OC)c2)c1 [Example 243, 2-([5-(3,5-Dimethoxyphenyl)-1-(3-ethoxyphenyl)-1H-pyrazol-3-yl]methoxy)-2-methylpropanoic acid]
 |  |  |  | 84000 |  |  | 5.6 | Cc1nn(C)c2sc(-c3cc(COC(C)(C)C(=O)O)nn3Cc3ccccc3Cl)cc12 [Example 265, 2-([1-[(2-Chlorophenyl)methyl]-5-[1,3-dimethyl-1H-thieno[2,3-c]pyrazol-5-yl]-1H-pyrazol-3-yl)methoxy)-2-methylpropanoic acid]

Compound | half-life at 2 µM [1] [h] | Human microsome % 60 min [1] [%] | half-life at 2 µM [2] [h] | Mouse microsome % 60 min [2] [%] | IC50 (MCT1) [nM] | half-life at 2 µM [3] [h] | Rat microsome % 60 min [3] [%] | IC50 (MCT4) [nM]
CC(C)Oc1ncc(-c2cc(COC(C)(C)C(=O)O)nn2Cc2ccccc2Cl)s1 [Example 133, 2-([1-[(2-Chlorophenyl)methyl]-5-[2-(propan-2-yloxy)-1,3-thiazol-5-yl]-1H-pyrazol-3-yl]methoxy)-2-methylpropanoic acid] | 16.8 | 97 | 5.73 | 90 | > 33000 | 6.73 | 91 | 13
